# According to article PMC4503694, “The Human Autoantibody Response to Apolipoprotein A-I Is Focused on the C-Terminal Helix: A New Rationale for Diagnosis and Treatment of Cardiovascular Disease?” (PLoS ONE, 2015):
# Assays:
# [1] = test system: anti-ApoA-I antibodies in plasma samples from three different patients; assay: Competition ELISA with plasma of three individual anti-ApoA-I-positive patients; assay type: binding, human; details: preincubated 2 h at room temperature with peptide, n = 3 (Fig 3)
# Protocol: We next performed ELISA assays using plasma samples from three different anti-ApoA-I autoantibody-positive patients from the cohort pre-incubated with Peptide F, a scrambled version of Peptide F (Table 1), or the stapled peptide F3L1 prior to addition to wells coated with ApoA-I (Fig 3).
# Plasma samples were preincubated (2 h, room temperature) with peptides at the indicated concentrations prior to addition to assay wells. Percent maximal ELISA signals were calculated as 100 × ([signal in well]-[mean background signal (uncoated well)])/ ([mean maximal signal (no peptide)]-[mean background signal]). Results are expressed as mean ± SD (n = 3).
# [2] = CD spectroscopy (alpha-helical content); assay type: physicochemical; details: 100 μM peptide in water with 1.25% trifluoroethanol, 20°C (Fig 2)
# Protocol: Experiments were carried out in 0.1 cm quartz cell using a Jasco J-710 spectrometer with 100 μM peptide solutions (1.25% trifluoroethanol in water) at 20°C.
# Fig 2 CD spectroscopy of peptide F3L1 indicates increased alpha-helical content. CD spectra of Peptide F and F3L1 were measured at 100μM concentration in water containing 1.25% trifluoroethanol.
# [3] = test system: human monocyte-derived macrophages; assay: Anti-ApoA-I IgG-mediated IL-6 and TNF-α release from human monocyte-derived macrophages; assay type: cell-based
# Protocol: Human monocytes were isolated from buffy coats from healthy donors at the Geneva University Hospitals Blood Transfusion Center and differentiated into macrophages by 24 h incubation with IFN-γ (500 U/ml) in complete RPMI-1640 culture medium (10% heat-inactivated FCS, 50 μg/ml streptomycin, 50 U/ml penicillin, 2 mM L-glutamine), as previously described. Assays of anti-ApoA-I IgG-mediated release of IL-6 and TNF-α from human monocyte-derived macrophages was carried out as described previously using a previously determined optimal concentration of polyclonal goat anti-ApoA-I IgG (40 μg/ml). Endotoxin contamination in the assay was excluded using the limulus amebocyte lysate Endochrome assay. Where indicated, anti-ApoA-I IgG was pre-incubated with peptide […] (1 mg/mL) for 2 h at room temperature prior addition to the cells. Each experiment was performed on cells from […] different healthy blood donors. […] We next used a Luminex assay to measure the capacity of peptide […] to inhibit endotoxin-free anti-ApoA-I IgG-mediated proinflammatory cytokine release in human monocyte-derived macrophages (Fig 5a and 5b). As expected from previously published work, anti-ApoA-I IgG elicited a significant increase in production of both in IL-6 and TNF-α when compared to control IgG (Ctl IgG; p<0.0001 for both cytokines). […] We were unable to measure the inhibitory activity of intact purified and delipidated ApoA-I in this assay because traces of endotoxin elicit significant levels of background cytokine secretion (NV and SP, unpublished observations).  Fig 5 Peptide […] inhibits anti-ApoA-I IgG-mediated release of proinflammatory cytokines from cultured human monocyte-derived macrophages. Release of proinflammatory cytokines TNF-α (a) IL-6 (b) from human monocyte-derived macrophages induced by endotoxin-free goat polyclonal anti-ApoA-I IgG was determined with or without preincubation (2 h at room temperature) of the anti-ApoA-I IgG with peptide […] (1 mg/mL) and the corresponding scrambled peptide (Scr Pept). […] Anti-ApoA-I IgG was incubated with the indicated […] concentrations (preincubation 2 h at room temperature) prior to addition to cultured human monocyte-derived macrophages. Levels of proinflammatory cytokines were determined after 24 h culture. Experiments were repeated using cells from three different healthy donors, with results expressed as median, interquartile range (IQR) and range.
# RAW cells = assay: Anti-ApoA-I IgG-induced TNF-α release in RAW mouse macrophage cell line; assay type: cell-based; details: anti-ApoA-I IgG 100 μg/ml preincubated 2 h with peptide 100 to 0.06 μg/ml; 24 h stimulation; ELISA; n = 3 (Fig 7)
# Protocol: Raw cells were seeded in 96-well plates at 2 × 10^5 cells/well in DMEM culture medium (10% heat-inactivated FCS, 50 μg/ml streptomycin, 50 U/ml penicillin) for 24 h. Anti-Apo-A1 IgG (100 μg/ml) were incubated with peptides across a concentration range from 100 μg/ml to 0.06 μg/ml for 2 h at room temperature prior addition to cells. After 24 h stimulation, mouse TNF-α was quantified in the cell supernatants by ELISA according to manufacturer’s instructions (R&D system, MN).
# Fig 7 Comparing the inhibitory potency of Peptide F and F3L1 on anti-ApoA-I IgG-induced TNF-α. Anti-ApoA-I IgG was incubated with the indicated peptide concentrations (preincubation 2 h at room temperature) prior to addition to cultured RAW cells. Levels of proinflammatory cytokines (TNF-α) were determined after 24 h culture. Mean levels (n = 3) are shown with error bars indicating the range.
# [4] = anti-ApoA-I IgG 40 μg/ml preincubated 2 h at room temperature with peptide 1 mg/mL (342 μM), nine donors, Luminex
substance,measurement,setting,value
"Ac-GLLPVLESFKVSFLSALEEYTKKLNT-NH2 (also: sidechain bridge or staple (positions not given here)) [Peptide F3L1, stapled version of Peptide F with a Glu-Lys lactam bridge]",inhibition of binding of anti-ApoA-I IgG to immobilized ApoA-I,[1],consistently improved binding inhibition with respect to Peptide F
same,alpha-helical content by CD,[2],increased alpha-helical content compared to the parent molecule
same,median IL-6 production,[3]; [4],19.2 pg/mL
same,median TNF-α production,[3]; [4],48.4 pg/mL
same,inhibition of anti-ApoA-I IgG-induced TNF-α and IL-6 release,"[3]; peptide preincubated with anti-ApoA-I IgG 2 h at room temperature, highest concentration 1 mg/mL (Fig 5, 6)",dose-dependent manner
same,cytokine production by peptide compared to control IgG,"[3]; peptide without anti-ApoA-I IgG, trend for TNF-α, p = 0.05",devoid of significant biological activity
same,inhibitory potency on anti-ApoA-I IgG-induced TNF-α,RAW cells,clearly a more potent inhibitor than Peptide F
